In patent publication US12427137B2, “Method for reducing methane production in animal stomach” (CHINA AGRICULTURAL UNIVERSITY, priority 2022, dated 2025):
Marks after values point to notes of the source that are not given here.

How the values were obtained:
[1] = Melatonin concentration in rumen fluids of cows fed with melatonin; format: in vivo; details: cows fed 15 mg/kg/day, days 7 to 21, FIG. 2
Procedure: (§1) In vivo experiment: twenty lactating cows with similar ages and body conditions were selected and randomly divided into two groups, a control group (fed with digestible paper only) and a melatonin-fed group (fed with melatonin wrapped in digestible paper, 15 mg/kg/day). Each group had 10 cows. The cows were fed every morning after milking. The treatment lasted for 21 days. The rumen fluids were collected with rumen collection tubes before the morning feeding on days 0, 7, 14 and 21, respectively. The concentrations of melatonin in the rumen fluids were measured by liquid chromatography tandem mass spectrometry (LC-MS/MS). The breathing gas of the cows was collected by a breathing gas collection system to detect the methane content therein. Meanwhile, the information (e.g., the health condition and milk quality) of the cows was also recorded to monitor the influence of the feeding experiment on the dairy production.
Twenty lactating cows with similar ages and body conditions were selected and randomly divided into two groups, a control group (CON, fed with digestible paper only) and a melatonin-fed group (MT, fed with melatonin wrapped in digestible paper). Each group had 10 cows. […] And the melatonin contents in the rumen fluids were determined by […]. […]

[2] = tested on: archaea / methanogenic genera of the rumen microbial flora; assay: Metagenome sequencing of in vitro fermentation rumen fluids (archaea); format: cell-based, cows; details: melatonin treatment vs control, FIG. 7B
Procedure: Metagenome sequencing was performed in order to further study the changes in the rumen microbial flora. In addition to the analysis of the gene table, the metagenome sequencing can also analyze the microbial compositions of the samples. Thus, it can obtain more information on the species, including phages, viruses, fungi, archaea and the like, other than bacteria. […] Due to the discovery of the methane-reducing effect of melatonin, we focused on the changes of archaea. 72 species archaea species, which had different abundance between the control and melatonin groups, were screened. […] Thus, melatonin can reduce the methane production by reducing the abundance of most methanogenic microbial flora.

rumen microbial flora = assay: Microorganism compositions of the in vitro rumen fermentation system (Alpha diversity, differential species analysis); format: cell-based, cows
Procedure: Alpha diversity can reflect the abundance and diversity of microbial flora. […] In order to clarify the species classification information of the microbial flora, the cluster analysis was performed to generate OTUs. FIGS. 5E-5F show the cluster diagram of the annotations at order level. […] There were significant differences in the relative abundance of Clostridiales, Bacteroides, Monadales, Desulfovibrionales and the like. The abundance of the microbial flora (e.g. Prevotella spp. and Succiniclasticum spp.) producing propionate and butyrate decreased, while the abundance of the microbial flora (e.g., Bifidobacterium) producing acetate increased. […] Each circle represents a species at the specific taxonomic level, and the size of the circle is positively correlated with the relative abundance of the species. The species with no significant differences are uniformly colored yellow, and the biomarkers for the species with differences are indicated with the color of the corresponding group.

[3] = tested on: rumen fluids of cows (in vitro rumen fermentation system); assay: In vitro fermentation of rumen fluids of cows, methane content by gas chromatography; format: cell-based; details: for methane production of the in vitro rumen fermentation system: FIG. 1
Description: Rumen fluids were collected from fistulated cows before morning feeding, filtered through 4 layers of gauze, and then brought back to the laboratory by placing in a thermos flask. The experiment comprised a control group (CON) and melatonin groups (MT: 10^−3 mol/L, 10^−5 mol/L, 10^−7 mol/L). The cattle farm Total Mixed Rations (TMR) was used as the fermentation substrate, and artificial saliva was used as the matrix. Oxygen in the fermentation flasks was replaced with nitrogen. Then, the rumen fluids were incubated anaerobically at 39° C. in an incubator, which was connected to a gas bag to collect the fermentation gas. The methane content in the gas bag was detected by gas chromatography. In vitro experiment: melatonin was added during the in vitro simulation of rumen fermentation. The in vitro rumen fermentation system of 75 mL in each bottle comprises 0.5 g TMR powder, 50 mL of artificial saliva and 25 mL of filtered rumen fluid. The 10^−3 mol/L, 10^−5 mol/L and 10^−7 mol/L melatonin groups (melatonin dissolved in a small amount of DMSO and diluted to these concentrations with saline) and a control group (only solvent, i.e., a small amount of DMSO+saline) were set up separately. For each group, the samples were collected at the fermentation times 2 h, 4 h, 8 h, 24 h and 48 h. Three replicates were set for each sample. After fermenting anaerobically at 39° C., the gas bags and fermentation liquid were collected. Gas chromatography was used to detect the methane content in the gas of the gas bags. The obtained data were analyzed by one-way analysis of variance (One Way ANOVA) by means of SPSS® (Statistical Product and Service Solutions) statistical software. p<0.05 indicated significant difference and p<0.01 indicated extremely significant difference. The DunCan test was used for multiple comparisons. The results were expressed as means±SEM. Addition form I: adding melatonin powder (MT p) directly to the fermentation system to a final concentration of 2×10−3 mol/L. Addition form II: adding concentrated melatonin solution (MT s) of 10^−3 mol/L at 0 h and 24 h respectively.

lactating cows = assay: Methane content in respiratory gases of cows fed with melatonin; format: in vivo; details: fed 15 mg/kg/day
Procedure: as §1, with “production. Lactating cows were fed with melatonin powder of 15 mg/kg/day for 21 days. The respiratory gases were collected from each group at days 0, 7, 14 and 21 by using a respiratory gas collection system. The methane contents in the gases were detected by gas chromatography. […] In addition, this effect can be maintained for a longer period of time.” for “production.”

[4] = tested on: rumen fluids (in vitro rumen fluid fermentation); assay: Volatile fatty acids (VFAs) from the in vitro rumen fluid fermentation, gas chromatography; format: cell-based, cows; details: 10^−3 mol/L melatonin, 48 h
Procedure: Rumen microorganisms can degrade plant fibers and produce VFAs, which in turn provide energy substances to the hosts. Thus, we analyzed the production of VFAs from the in vitro fermentation system. Based on the above experiments, we determined to in vitro treat the rumen fluids with 10^−3 mol/L of melatonin solution for 48 h. The levels of six VFAs (i.e., acetate (A), propionate (P), butyrate (B), isobutyrate, valerate and isovalerate), were detected in the in vitro rumen fluid fermentation solution by gas chromatography. […] In the rumens of ruminant animals, CO2 and H2 are mainly produced during the conversion of pyruvate into acetate and butyrate in glycolysis, and glucose can be generated from propionate. The A/P ratios of the two groups were compared, 3.00 for the control group and 3.372 for the melatonin group.

Compound: COc1ccc2[nH]cc(CCNC(C)=O)c2c1 [melatonin]
- melatonin concentrations in the rumen fluids [1]: significantly increased
- abundance of most methanogenic genera (Halobacterium, Methanoplanus, Methanococcoides, Methanoculleus, Methanothrix spp.) [2]: reduced
- abundance of the microbial flora producing acetate (e.g., Bifidobacterium) (rumen microbial flora; FIGS. 6A-6B): increased
- abundance of the microbial flora producing propionate and butyrate (e.g. Prevotella spp. and Succiniclasticum spp.) (rumen microbial flora; FIGS. 6A-6B): decreased
- diversity of rumen microbial flora (Alpha diversity) (rumen microbial flora; melatonin added to the fermentation system, FIGS. 5A-5D): increased
- compositions of the microbial flora (relative abundance of orders Clostridiales, Bacteroides, Monadales, Desulfovibrionales) (rumen microbial flora; melatonin treatment, FIGS. 5E-5F): significant changes
- methane production of the in vitro fermentation ([3]; 10^−3 mol/L, 48 h, vs control): significantly reduced
- methane production of the rumen fermentation liquid ([3]; 10^−3 to 10^−7 mol/L, 4 h to 8 h): reduced
- reduction of methane production as compared with the control group ([3]; 4 h, all concentrations of melatonin groups (10^−3 to 10^−7 mol/L)): about 15%
- methane content (%) ([3]; MT 10^−3 mol/L, fermentation time 2 h): 0.99 ± 0.05%
- methane content (%) ([3]; MT 10^−3 mol/L, fermentation time 4 h): 3.42 ± 0.13%
- methane content (%) ([3]; MT 10^−3 mol/L, fermentation time 8 h): 4.43 ± 0.39%
- methane content (%) ([3]; MT 10^−3 mol/L, fermentation time 24 h): 9.68 ± 0.07%
- methane content (%) ([3]; MT 10^−3 mol/L, fermentation time 48 h): 10.79 ± 0.53^b %
- methane content (%) ([3]; MT 10^−5 mol/L, fermentation time 2 h): 1.09 ± 0.06%
- methane content (%) ([3]; MT 10^−5 mol/L, fermentation time 4 h): 3.47 ± 0.07%
- methane content (%) ([3]; MT 10^−5 mol/L, fermentation time 8 h): 4.47 ± 0.39%
- methane content (%) ([3]; MT 10^−5 mol/L, fermentation time 24 h): 10.4 ± 0.24%
- methane content (%) ([3]; MT 10^−5 mol/L, fermentation time 48 h): 12.65 ± 0.45^a %
- methane content (%) ([3]; MT 10^−7 mol/L, fermentation time 2 h): 1.03 ± 0.07%
- methane content (%) ([3]; MT 10^−7 mol/L, fermentation time 4 h): 3.45 ± 0.05%
- methane content (%) ([3]; MT 10^−7 mol/L, fermentation time 8 h): 5.16 ± 0.14%
- methane content (%) ([3]; MT 10^−7 mol/L, fermentation time 24 h): 10.6 ± 0.44%
- methane content (%) ([3]; MT 10^−7 mol/L, fermentation time 48 h): 11.25 ± 0.67^a %
- methane production of the in vitro rumen fermentation system ([3]; addition form I: melatonin powder (MT p), final concentration 2×10−3 mol/L, 48 h): significantly reduced
- methane production of the in vitro rumen fermentation system ([3]; addition form II: concentrated melatonin solution (MT s) of 10^−3 mol/L at 0 h and 24 h, 48 h): significantly reduced
- methane production from the respiration of the cows (lactating cows; day 14, FIG. 3): decreased significantly
- methane production from the respiration of the cows (lactating cows; day 21, FIG. 3): decreased to a similar extent as at day 14
- methane production from the respiration of the cows (lactating cows; from day 7, FIG. 3): decreased
- level of acetic acid in rumen fluids ([4]; FIG. 4): significantly reduced
- level of propionic acid in rumen fluids ([4]; FIG. 4): significantly reduced
- A/P ratio (acetate/propionate) ([4]; control group 3.00): 3.372
